Data published in patent US7498337B2, “Acid secretion inhibitor” (Takeda Pharmaceutical Company Limited, priority 2005, dated 2009).

How the values were obtained:
[1] = biological target: T1, H+,K+-ATPase (gastric mucous membrane microsomal fraction) (Sus scrofa, UniProt P19156); experiment: Proton potassium-adenosine triphosphatase (H+,K+-ATPase) inhibitory activity test; assay type: biochemical; settings: swine gastric microsomal fraction, pH 6.5, 37° C., 30 min preincubation
T1 construct: The obtained microsomal fraction was used as a proton, potassium-adenosine triphosphatase standard product; from tissue; host or cells: swine stomach, gastric mucous membrane microsomal fraction
T1 sequence (P19156 2-1034 limits assumed): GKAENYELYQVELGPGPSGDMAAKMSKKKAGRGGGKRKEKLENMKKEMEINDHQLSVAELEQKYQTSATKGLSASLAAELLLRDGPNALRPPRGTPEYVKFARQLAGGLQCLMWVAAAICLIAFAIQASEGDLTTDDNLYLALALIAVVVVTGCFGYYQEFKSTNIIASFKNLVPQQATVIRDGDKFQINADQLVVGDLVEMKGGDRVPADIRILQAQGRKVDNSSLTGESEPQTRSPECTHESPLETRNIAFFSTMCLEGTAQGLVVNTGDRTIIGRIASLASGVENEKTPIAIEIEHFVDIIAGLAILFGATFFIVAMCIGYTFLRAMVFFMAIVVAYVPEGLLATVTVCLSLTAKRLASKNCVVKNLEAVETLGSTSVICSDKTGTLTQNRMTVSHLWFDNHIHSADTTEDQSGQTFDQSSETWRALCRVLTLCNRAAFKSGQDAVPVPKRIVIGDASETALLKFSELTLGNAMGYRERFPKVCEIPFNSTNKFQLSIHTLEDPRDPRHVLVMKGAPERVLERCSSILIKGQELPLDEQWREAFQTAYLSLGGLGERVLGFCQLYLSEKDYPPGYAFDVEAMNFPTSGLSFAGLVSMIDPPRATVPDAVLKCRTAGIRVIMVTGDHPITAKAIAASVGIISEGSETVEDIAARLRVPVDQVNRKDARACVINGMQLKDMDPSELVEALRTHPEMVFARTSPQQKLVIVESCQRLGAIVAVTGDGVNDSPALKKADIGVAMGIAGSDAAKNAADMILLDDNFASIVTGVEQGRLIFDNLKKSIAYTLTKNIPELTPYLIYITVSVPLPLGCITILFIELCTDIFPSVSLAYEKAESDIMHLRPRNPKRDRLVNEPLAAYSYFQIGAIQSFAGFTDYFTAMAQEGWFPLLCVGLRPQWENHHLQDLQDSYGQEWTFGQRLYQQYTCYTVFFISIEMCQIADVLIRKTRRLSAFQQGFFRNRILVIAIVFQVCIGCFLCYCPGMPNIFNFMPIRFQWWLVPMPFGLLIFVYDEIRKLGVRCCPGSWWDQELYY
T1 sequence (P18434 whole entry partner): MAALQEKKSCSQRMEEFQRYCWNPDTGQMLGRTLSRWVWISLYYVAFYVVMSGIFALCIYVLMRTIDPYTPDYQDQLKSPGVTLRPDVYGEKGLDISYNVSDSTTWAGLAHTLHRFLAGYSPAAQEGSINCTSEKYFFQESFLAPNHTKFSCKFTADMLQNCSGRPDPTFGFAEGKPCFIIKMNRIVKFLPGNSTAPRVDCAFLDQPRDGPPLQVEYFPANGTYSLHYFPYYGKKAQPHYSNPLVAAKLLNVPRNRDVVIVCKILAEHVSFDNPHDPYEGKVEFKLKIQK
Experimental: Proton Potassium-Adenosine Triphosphatase (H^+,K^+-ATPase) Inhibitory Activity Test According to the method [Biochim. Biophys. Acta, 728, 31 (1983)] of Wallmark et al., a gastric mucous membrane microsomal fraction was prepared from the stomach of swine. First, the stomach was removed, washed with tap water, immersed in 3 mol/L brine, and the surface of the mucous membrane was wiped with a paper towel. The gastric mucous membrane was detached, chopped, and homogenized in a 0.25 mol/L saccharose solution (pH 6.8) containing 1 mmol/L EDTA and 10 mmol/L tris-hydrochloric acid using polytron (Kinematica). The obtained homogenate was centrifuged at 20,000×g for 30 min and the supernatant was centrifuged at 100,000×g for 90 min. The precipitate was suspended in 0.25 mol/L saccharose solution, superimposed on a 0.25 mol/L saccharose solution containing 7.5% Ficoll, and centrifuged at 100,000×g for 5 hr. The fraction containing the interface between the both layers was recovered, and centrifugally washed with 0.25 mol/L saccharose solution. The obtained microsomal fraction was used as a proton, potassium-adenosine triphosphatase standard product. […] The enzyme reaction was started by adding 5 μL of a 2 mmol/L-adenosine triphosphate tris salt solution (50 mmol/L HEPES-tris buffer (5 mmol/L magnesium chloride, pH 6.5)). The enzyme reaction was carried out at 37° C. for 20 min, and 15 μL of a malachite green solution (0.12% malachite green solution in sulfuric acid (2.5 mol/L), 7.5% ammonium molybdate and 11% Tween 20 were mixed at a ratio of 100:25:2) was added to quench the reaction. […] In addition, the amount of the inorganic phosphoric acid in the reaction solution free of potassium chloride was measured in the same manner, which was subtracted from the inorganic phosphoric acid amount in the presence of potassium chloride to determine the proton, potassium-adenosine triphosphatase activity.

HepG2 cells = experiment: Intracellular ATP content in HepG2 cells (cytotoxicity); assay type: cell-based, human; settings: HepG2, 30 μM, culture for one day, relative value to control, ATPLite, n≧3 average
Experimental: Human liver cancer-derived cell line HepG2 (ATCC No. HB-8065) was passaged using Dulbecco's Modified Eagle medium (DMEM; Invitrogen) containing 10% fetal bovine serum (FBS; TRACE SCIENTIFIC LTD.), 1 mmol/L sodium pyruvate (Invitrogen), 2 mmol/L L-glutamine (Invitrogen), 50 IU/mL penicillin (Invitrogen) and 50 μg/mL streptomycin (Invitrogen) at 5% CO2, 37° C. The test reagent was prepared with DMSO to 10 mM, and further diluted with DMEM medium containing 0.5% FBS, 1 mmol/L sodium pyruvate, 2 mmol/L L-glutamine, 50 IU/mL penicillin and 50 μg/mL streptomycin to a final concentration of DMSO of 0.1%. HepG2 (2×10^4 cells/well) was cultured on a 96 well white plate (Costar) with the test reagent at 5% CO2, 37° C. After culture for one day, the intracellular ATP content was measured using ATPLite™ (PerkinElmer Life Sciences). The results are shown in Table 24 (n≧3, average value±SD) as a relative value (%) to control (without addition of drug) at 30 μM.

Structure (SMILES)	IC50 [1] [nM]	ATP content (%, 30 μM) (HepG2 cells) [%]
CNCc1cc(-c2ccccc2)n(S(=O)(=O)c2ccc(OC)nc2)c1.Cl [Example 2, 1-{1-[(6-methoxypyridin-3-yl)sulfonyl]-5-phenyl-1H-pyrrol-3-yl}-N-methylmethanamine hydrochloride]	13	45.2
CNCc1cc(-c2ccccc2)n(S(=O)(=O)c2cnc(NC)nc2)c1.Cl [Example 5, N-methyl-1-{1-[2-(methylamino)pyrimidin-5-ylsulfonyl]-5-phenyl-1H-pyrrol-3-yl}methanamine hydrochloride]	65	73.9
CNCc1cc(-c2ccccc2)n(S(=O)(=O)c2cnc(C)nc2)c1.Cl.Cl [Example 7, N-methyl-1-[1-(2-methylpyrimidin-5-ylsulfonyl)-5-phenyl-1H-pyrrol-3-yl]-methanamine dihydrochloride]	34	76.5
CNCc1cc(-c2ccccc2F)n(S(=O)(=O)c2cccnc2)c1.O=C(O)/C=C/C(=O)O [Example 8, 1-[5-(2-fluorophenyl)-1-(pyridin-3-ylsulfonyl)-1H-pyrrol-3-yl]-N-methylmethanamine fumarate]	22	87.9
CNCc1cc(-c2cscc2C)n(S(=O)(=O)c2cccnc2)c1.Cl.Cl [Example 29, N-methyl-1-[5-(4-methyl-3-thienyl)-1-(pyridin-3-ylsulfonyl)-1H-pyrrol-3-yl]methanamine dihydrochloride]	41	71.5
CNCc1cc(-c2ccc(F)cc2F)n(S(=O)(=O)c2cccnc2)c1.Cl.Cl [Example 32, 1-[5-(2,4-difluorophenyl)-1-(pyridin-3-ylsulfonyl)-1H-pyrrol-3-yl]-N-methylmethanamine dihydrochloride]	8.9	53.6
CNCc1cn(S(=O)(=O)c2cccnc2)c(-c2ccccc2)c1F.Cl.Cl [Example 41, 1-[4-fluoro-5-phenyl-1-(pyridin-3-ylsulfonyl)-1H-pyrrol-3-yl]-N-methylmethanamine dihydrochloride]	43	86.7
CNCc1cc(-c2ccccc2F)n(S(=O)(=O)c2ccc(C)nc2)c1.Cl.Cl [Example 44, 1-{5-(2-fluorophenyl)-1-[(6-methylpyridin-3-yl)sulfonyl]-1H-pyrrol-3-yl}-N-methylmethanamine dihydrochloride]	48	78.5
CNCc1cc(-c2ccccc2C)n(S(=O)(=O)c2cccnc2)c1.O=C(O)/C=C/C(=O)O [Example 47, N-methyl-1-[5-(2-methylphenyl)-1-(pyridin-3-ylsulfonyl)-1H-pyrrol-3-yl]methanamine fumarate]	58	81.8
CNCc1cc(-c2cccnc2F)n(S(=O)(=O)c2cccnc2)c1.O=C(O)/C=C/C(=O)O [Example 74, 1-[5-(2-fluoropyridin-3-yl)-1-(pyridin-3-ylsulfonyl)-1H-pyrrol-3-yl]-N-methylmethanamine fumarate]	210	95.2
